Assay results taken from patent publication US12070037B2, “Methods and compositions for bioprotection of potatoes from Streptomyces scabies” (THE ROYAL INSTITUTION FOR THE ADVANCEMENT OF …, priority 2018, dated 2024).

Tested on: Streptomyces scabies
Assay: agar well diffusion assay
Type: cell-based
Protocol: In addition, the antimicrobial activity of the crude extracts from Bacillus pumilus and Bacillus subtilis was assessed via agar well diffusion assay. A spore suspension of Streptomyces scabies was overlaid on PDA and the plates were allowed to air dry. A 50 μL drop of crude extracts from Bacillus pumilus (top), Bacillus pumilus (right), and Bacillus subtilis (left) were poured into agar well and a control solution was pour on the bottom of the agar well.
The concentrated material (crude extract) in the vessel was suspended in 10% acetonitrile (AcN/H2O, v/v) and frozen at −20° C. until further analysis. The crude extract was centrifuged (Sorvall Biofuge Pico, Mandel Scientific, ON, Canada) at 13,000 rpm for 30 min to remove insoluble particles. The supernatant was filter sterilized (PVDF, […], Fisher Scientific, Montreal, Canada) and tested for biological activity against Streptomyces scabies. The filtered extract was then loaded onto a C18 column (Restek™, Fisher Scientific, Montreal, Canada) and eluted with 20 mL of 10%, 20%, 40%, 60%, 80% and 100% acetonitrile and the fractions were collected. The eluted fractions under various concentrations of acetonitrile were lyophilized (SNL216V, Savant Instruments Inc., NY, USA), suspended in sterilized distilled water and tested for biological activity against Streptomyces scabies. The fraction showing an inhibition zone against Streptomyces scabies was selected for further fractionation by HPLC. The active fraction was stored in sterilized vials at 4° C. prior to HPLC analysis.
The antimicrobial activities of Micrococcin P1 at various concentrations were assessed via agar well diffusion assay. A spore suspension of Streptomyces scabies was overlaid on PDA and the plates were allowed to air dry. A 50 μL drop of Micrococcin P1 diluted in various concentrations were applied into agar well.

With Micrococcin P1 the “minimal amount giving growth inhibition zones” value (per well, in 50 μL, PDA, 3 days 30° C.) was no less than 31.25 ng, the “antimicrobial activity of the standard” value (tested for biological activity) was “showed antimicrobial activity against Streptomyces scabies” and the “dose dependence of antibacterial activities” value (up to 5 mg/L (4.37 μM), highest concentration tested) was “increased proportional to the Micrococcin P1 concentrations”.
